Patent US11413297B2, “Therapies for treating and preventing chronic rhinosinusitis” (Avanti Polar Lipids, LLC, priority 2017, dated 2022)

Experiments:
Assay type in all cases: cell-based
[1] = system: S. aureus; test: Inhibition of growth of planktonic S. aureus, OD600 (Example 8); conditions: in combination with gentamicin, compared to gentamicin alone; 6 h; phospholipid 256, 512, 1024 μg/ml
Description: (§1) We performed in vitro studies of the capacity of phospholipids together with antibiotics to inhibit the growth of planktonic bacteria. The tests were conducted as follows. Freshly grown S. aureus was quantitated and placed in 96-well plates together with gentamicin alone, phospholipids plus gentamicin, or control solutions. Two different phospholipids (MAPCHO-10 and MAPCHO-12) were tested at three different phospholipid test concentrations (256 μg/ml, 512 μg/ml, and 1024 μg/ml). After 24 hours at 37 degrees C., media was removed and fresh medium was added and the 96-well plates were incubated at 37 degrees C. for 6 hours. Bacterial density was then analyzed and measured at OD600.

[2] = system: S. aureus biofilm formation; test: Prevention of S. aureus biofilm formation at 6 h, crystal violet (Example 9); conditions: in combination with gentamicin, phospholipid 256, 512, 1024 μg/ml
Description: We performed in vitro tests of the capacity of phospholipids together with antibiotics to prevent formation of biofilms. Freshly grown S. aureus was quantitated and placed in 96-well plates together with gentamicin alone, phospholipids plus gentamicin, or control solutions. Two different phospholipids ([…]-10 and […]-12) were tested at three different phospholipid test concentrations (256 μg/ml, 512 μg/ml, and 1024 μg/ml). After 6 hours at 37 degrees C., the fluids were removed and the wells stained with crystal violet, and then the density of crystal violet in the wells was quantitated.

[3] = system: MRSA; test: Inhibition of growth of planktonic MRSA, OD600 (Example 10); conditions: in combination with gentamicin, compared to gentamicin alone; 6 h; phospholipid 256, 512, 1024 μg/ml
Description: as §1, with “MRSA” for “S. aureus”

[4] = system: preformed P. aeruginosa biofilms; test: Disruption of preformed P. aeruginosa biofilms, crystal violet (Example 3); conditions: for disruption of preformed P. aeruginosa biofilms: 6 h time point; for eradication of preformed P. aeruginosa biofilms: 24 h time point, FIGS. 5A-5C
Description: We performed in vitro studies of the capacity of phospholipids together with antibiotics to disrupt preformed bacterial biofilms. The tests were conducted as follows. Biofilm formation was obtained by culturing P. aeruginosa in cation-adjusted Mueller Hinton Broth after incubation at 37 degrees C. for 24 hours in 96 well plates. The medium was then removed and replaced by treatment solutions of gentamicin, phospholipids plus gentamicin, or control solutions. Either three or four different phospholipids (MAPCHO-10, MAPCHO-12, MAPCHO-14, and MAPCHO-16) were tested at three different phospholipid test concentrations (512 μg/ml, 1024 μg/ml, and 2048 μg/ml). After 24 hours at 37 degrees C., media was removed and fresh medium was added and the 96-well plates were incubated at 37 degrees C. for either 6 hours or 24 hours. Media were then removed and biofilm at the base of the wells was stained with crystal violet and quantitated.

[5] = system: P. aeruginosa; test: Inhibition of growth of planktonic P. aeruginosa, OD600 (Example 4); conditions: in combination with gentamicin, compared to gentamicin alone, phospholipid 1024 and 2048 μg/ml
Description: We performed in vitro studies of the capacity of phospholipids together with antibiotics to inhibit the growth of planktonic bacteria. The tests were conducted as follows. Freshly grown P. aeruginosa was quantitated and placed in 96-well plates together with gentamicin alone, phospholipids plus gentamicin, or control solutions. Four different phospholipids (MAPCHO-10, MAPCHO-12, MAPCHO-14, and MAPCHO-16) were tested at two different phospholipid test concentrations (1024 μg/ml and 2048 μg/ml). After 24 hours at 37 degrees C., media was removed and fresh medium was added and the 96-well plates were incubated at 37 degrees C. for either 6 hours or 24 hours. Bacterial density was then analyzed and measured at OD600.

[6] = system: P. aeruginosa biofilm formation; test: Prevention of P. aeruginosa biofilm formation, crystal violet (Example 5); conditions: 24 h
Description: We performed in vitro tests of the capacity of phospholipids together with antibiotics to prevent formation of biofilms. Freshly grown P. aeruginosa was quantitated and placed in 96-well plates together with gentamicin alone, phospholipids plus gentamicin, or control solutions. Four different phospholipids (MAPCHO-10, MAPCHO-12, MAPCHO-14, and MAPCHO-16) were tested at two different phospholipid test concentrations (1024 μg/ml and 2048 μg/ml). After 24 hours at 37 degrees C., the fluids were removed and the wells stained with crystal violet, and then the density of crystal violet in the wells was quantitated.

[7] = system: P. aeruginosa; test: Prevention of P. aeruginosa bacterial growth, OD600 after 24 h (Example 6); conditions: in combination with gentamicin, phospholipid 512, 1024, 2048 μg/ml, FIGS. 9A-9C
Description: We performed in vitro studies of the capacity of phospholipids together with antibiotics to prevent bacterial growth. Freshly grown P. aeruginosa was quantitated and placed in 96-well plates together with gentamicin alone, phospholipids plus gentamicin, or control solutions. Three different phospholipids (MAPCHO-12, MAPCHO-14, and MAPCHO-16) were tested at three different phospholipid test concentrations (512 μg/ml, 1024 μg/ml, and 2048 μg/ml). After 24 hours at 37 degrees C., bacterial density was then analyzed and measured at OD600.

[8] = system: P. aeruginosa in preformed biofilm; test: Bacterial density of P. aeruginosa in preformed biofilm, OD600 (Example 7); conditions: in combination with gentamicin; 6 h; phospholipid 512, 1024, 2048 μg/ml; FIGS. 10A-10D
Description: We performed in vitro studies of the capacity of phospholipids together with antibiotics to eradicate preformed bacterial biofilms. The tests were conducted as follows. Biofilm formation was obtained by culturing P. aeruginosa in cation-adjusted Mueller Hinton Broth after incubation at 37 degrees C. for 24 hours in 96 well plates. The medium was then removed and replaced by treatment solutions of gentamicin, phospholipids plus gentamicin, or control solutions. Four different phospholipids (MAPCHO-10, MAPCHO-12, MAPCHO-14, and MAPCHO-16) were tested at three different phospholipid test concentrations (512 μg/ml, 1024 μg/ml, and 2048 μg/ml). After 24 hours at 37 degrees C., media was removed and fresh medium was added and the 96-well plates were incubated at 37 degrees C. for 6 hours. Bacterial density was then analyzed and measured at OD600.

[9] = system: S. aureus (NCTC 8325) biofilm formation; test: Prevention of S. aureus (NCTC 8325) biofilm formation, crystal violet at 540 nm (Example 12); conditions: agent alone (antibiotic alone at low concentrations, or phospholipid alone); 24 hours
Description: We also performed in vitro tests of the capacity of phospholipids together with antibiotics to prevent formation of biofilms. Freshly grown S. aureus (NCTC 8325) were quantitated and placed in 96-well plates together with phospholipids plus gentamicin and tobramycin (antibiotics) or antibiotics alone. After 24 hours at 37 degrees C., the fluids were removed and the wells stained with crystal violet, and then the density of crystal violet in the wells was quantitated by absorption of light at 540 nm.

[10] = system: preformed S. aureus (ATCC BAA-1720) biofilms; test: Disruption of preformed S. aureus biofilm, crystal violet staining (Example 1); conditions: agent alone (gentamicin alone or phospholipid alone)
Description: We performed in vitro studies of the capacity of phospholipids together with antibiotics to disrupt preformed bacterial biofilms. The tests were conducted as follows. Biofilm formation was obtained by culturing (1) S. aureus in tryptic soy broth media supplemented with 5% glucose; and (2) P. aeruginosa in cation-adjusted Mueller Hinton Broth after incubation at 37 degrees C. for 24 hours in 96 well plates. The medium was then removed and replaced by treatment solutions of antibiotics, antibiotics+phospholipids, phospholipids alone, or control solutions. Phospholipid concentration used in the assays was 512 μg/ml although in some studies, was […]. After 24 hours at 37 degrees C., media was removed and fresh medium was added and the 96-well plates incubated at 37 degrees C. for 24 hours. Media were then removed and biofilm at the base of the wells was stained with crystal violet and quantitated.

[11] = system: S. aureus (ATCC BAA-1720) biofilm formation; test: Prevention of S. aureus biofilm formation, crystal violet at 540 nm (Example 2); conditions: agent alone (gentamicin alone at low concentrations, or phospholipid alone); 24 hours
Description: We also performed in vitro tests of the capacity of phospholipids together with antibiotics to prevent formation of biofilms. Freshly grown S. aureus and P. aeruginosa were quantitated and placed in 96-well plates together with phospholipids plus gentamicin and tobramycin (antibiotics), phospholipids alone, antibiotics alone or controls solution. After 24 hours at 37 degrees C., the fluids were removed and the wells stained with crystal violet, and then the density of crystal violet in the wells was quantitated by absorption of light at 540 nm.

[12] = in combination with gentamicin, phospholipid 512, 1024 and 2048 μg/ml, FIGS. 4B-4D
[13] = in combination with gentamicin, phospholipid 512, 1024 and 2048 μg/ml
[14] = in combination with gentamicin, phospholipid 1024 or 2048 μg/ml, FIGS. 8B, 8C

Row | Compound | disruption of preformed P. aeruginosa biofilms [4, 12] | eradication of preformed P. aeruginosa biofilms [4, 13] | prevention of P. aeruginosa biofilm formation [6, 14] | inhibition of P. aeruginosa bacterial growth relative to gentamicin alone [7] | inhibition of P. aeruginosa bacterial growth in preformed biofilm relative to gentamicin alone [8] | prevention of biofilm formation by S. aureus (NCTC 8325) [9] | also measured
1 | CCCCCCCCCCOP(=O)([O-])OCC[N+](C)(C)C [MAPCHO-10, N-decylphosphocholine] |  |  |  |  |  |  | inhibition of S. aureus growth [1]: moderate inhibition; prevention of S. aureus biofilm formation compared to gentamicin alone [2]: more effective; inhibition of MRSA growth [3]: moderate inhibition
2 | CCCCCCCCCCCCCCOP(=O)([O-])OCC[N+](C)(C)C [MAPCHO-14, N-tetradecylphosphocholine] | disruption of P. aeruginosa biofilms occurs | nearly complete eradication | effective at preventing | more effective | more effective |  | inhibition of P. aeruginosa growth ([5]; 6 h time point): moderate inhibition; inhibition of P. aeruginosa growth ([5]; 24 h time point): significant inhibition
3 | CCCCCCCCCCCCCCCCOP(=O)([O-])OCC[N+](C)(C)C [MAPCHO-16] | disruption of P. aeruginosa biofilms occurs | nearly complete eradication | effective at preventing | more effective | more effective |  | 
4 | NC[C@H]1O[C@H](O[C@H]2[C@H](O)[C@@H](O[C@H]3O[C@H](CO)[C@@H](O)[C@H](N)[C@H]3O)[C@H](N)C[C@@H]2N)[C@H](N)C[C@@H]1O [tobramycin, reference compound] |  |  |  |  |  | did not prevent the formation of the biofilm | 
5 | gentamicin [reference compound] |  |  |  |  |  | did not prevent the formation of the biofilm | disruption of preformed biofilm of S. aureus [10]: not successful; prevention of biofilm formation by S. aureus [11]: does not prevent the formation of the biofilm; disruption of preformed P. aeruginosa biofilms ([4]; gentamicin alone, FIG. 4A): did not induce biofilm disruption; prevention of P. aeruginosa biofilm formation ([6]; gentamicin alone, FIG. 8A): unable to prevent
